EC50 and Emax data for three compounds are collected here from US20230265151A1, “GIP/GLP1 CO-AGONIST COMPOUNDS” (priority 2020, published 2023).

Where two headings read alike, the source gives them in different places. *1 amine or outer side, *2 acyl side, *3 side chain or, on linkers, in order; H or OH if unused. Where a SMILES comes first, the peptide text is derived from it. Side-chain parts run from the residue outwards. [ ]: non-standard residue; d: D form. The star is where a group is joined. Decanoyl(10-(4-HOOC-PhO)) = O=C(O)c1ccc(OCCCCCCCCCC(=O)*)cc1; αMePhe(2-F) = C[C@](N)(Cc1ccccc1F)C(=O)O; γGlu = O=C(O)[C@H](CCC(=O)[*:2])N[*:1]; αMeY = C[C@](N)(Cc1ccc(O)cc1)C(=O)O; αMeL = CC(C)C[C@](C)(N)C(=O)O; Orn = NCCC[C@H](N)C(=O)O; AEEA = NCCOCCOCC(=O)O; Aib = CC(C)(N)C(=O)O

What all share (assay type): cell-based
One experiment has as its target T1, hGIPR (Homo sapiens, UniProt P48546).
T1 construct: expressed in transfected cells
T1 sequence (P48546 22-466): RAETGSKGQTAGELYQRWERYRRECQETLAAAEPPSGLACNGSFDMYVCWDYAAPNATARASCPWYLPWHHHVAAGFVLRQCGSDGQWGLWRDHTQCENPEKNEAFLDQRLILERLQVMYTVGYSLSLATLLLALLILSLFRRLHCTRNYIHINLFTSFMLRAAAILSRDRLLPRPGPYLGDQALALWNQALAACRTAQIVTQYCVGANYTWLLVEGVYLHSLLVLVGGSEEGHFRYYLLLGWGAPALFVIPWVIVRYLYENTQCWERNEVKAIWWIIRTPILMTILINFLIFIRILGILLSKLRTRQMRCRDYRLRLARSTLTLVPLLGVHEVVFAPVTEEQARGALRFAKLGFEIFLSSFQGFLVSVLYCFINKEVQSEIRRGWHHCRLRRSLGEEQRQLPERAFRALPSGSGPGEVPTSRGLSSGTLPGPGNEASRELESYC
The experiment can be described thus: Functional cAMP formation (HTRF) in HEK-293 clonal cells expressing hGIPR, 0.1% bovine casein, without or with 1.0% human serum albumin. As to conditions: for EC50: geometric mean. The essentials:
(§1)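 Readings of the HTRF 665/620 nm ratio, which falls as cAMP rises, were converted to nM cAMP using a standard curve after 30 min peptide exposure at 37° C.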

For the next experiment, the target named is T2, hGCGR (Homo sapiens, UniProt P47871).
T2 construct: expressed in transfected cells
Description: Functional cAMP formation (HTRF) in HEK-293 clonal cells expressing hGCGR, 0.1% bovine casein, without or with 1.0% human serum albumin. In short, it runs like this: as §1

For a further experiment, the target named is hGLP-1R (Homo sapiens, UniProt P43220). The experiment can be described thus: Functional cAMP formation (HTRF) in HEK-293 clonal cells expressing hGLP-1R, 0.1% bovine casein, without or with 1.0% human serum albumin. On the set-up: expressed in transfected cells. The conditions noted are these: for EC50: geometric mean. In short, it runs like this: as §1
Chain of hGLP-1R (P43220 24-463): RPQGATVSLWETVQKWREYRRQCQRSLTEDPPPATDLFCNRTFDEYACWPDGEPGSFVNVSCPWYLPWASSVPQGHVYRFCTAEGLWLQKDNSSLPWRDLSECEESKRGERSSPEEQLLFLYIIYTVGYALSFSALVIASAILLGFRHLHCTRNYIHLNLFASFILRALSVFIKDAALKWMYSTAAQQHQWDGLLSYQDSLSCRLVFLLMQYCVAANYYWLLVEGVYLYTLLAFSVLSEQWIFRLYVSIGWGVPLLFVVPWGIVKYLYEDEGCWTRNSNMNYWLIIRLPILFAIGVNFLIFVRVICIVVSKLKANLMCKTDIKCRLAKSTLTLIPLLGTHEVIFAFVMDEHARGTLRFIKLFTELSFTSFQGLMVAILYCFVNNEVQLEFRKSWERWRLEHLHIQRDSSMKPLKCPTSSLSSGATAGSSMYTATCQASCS

T2 sequence (P47871 26-477): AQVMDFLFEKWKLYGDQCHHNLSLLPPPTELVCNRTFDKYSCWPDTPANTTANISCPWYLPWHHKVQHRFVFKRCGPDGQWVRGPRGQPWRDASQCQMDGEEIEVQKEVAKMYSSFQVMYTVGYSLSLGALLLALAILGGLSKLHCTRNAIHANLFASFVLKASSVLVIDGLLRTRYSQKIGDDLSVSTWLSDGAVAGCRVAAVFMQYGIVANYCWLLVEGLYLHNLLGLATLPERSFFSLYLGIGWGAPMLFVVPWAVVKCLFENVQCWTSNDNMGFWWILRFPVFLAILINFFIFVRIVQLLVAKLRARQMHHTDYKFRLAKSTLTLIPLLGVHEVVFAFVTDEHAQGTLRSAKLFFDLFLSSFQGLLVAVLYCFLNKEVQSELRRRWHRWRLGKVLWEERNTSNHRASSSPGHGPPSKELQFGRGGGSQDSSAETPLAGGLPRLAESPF

In the case of `CC[C@H](C)[C@H](NC(=O)[C@H](CCCN)NC(=O)[C@H](CC(=O)O)NC(=O)[C@H](CC(C)C)NC(=O)[C@](C)(CC(C)C)NC(=O)[C@@H](NC(=O)[C@H](CO)NC(=O)[C@H](Cc1ccncc1)NC(=O)[C@H](CC(=O)O)NC(=O)[C@H](CO)NC(=O)[C@@H](NC(=O)[C@](C)(Cc1ccccc1F)NC(=O)[C@@H](NC(=O)CNC(=O)[C@H](CCC(=O)O)NC(=O)C(C)(C)NC(=O)[C@@H](N)Cc1ccc(O)cc1)[C@@H](C)O)[C@@H](C)O)[C@@H](C)CC)C(=O)N[C@@H](C)C(=O)N[C@@H](CCC(N)=O)C(=O)NC(C)(C)C(=O)N[C@@H](CCCCNC(=O)COCCOCCNC(=O)COCCOCCNC(=O)CCCCCCCCCCCCC(=O)O)C(=O)N[C@@H](Cc1ccccc1)C(=O)N[C@H](C(=O)N[C@H](CCC(=O)O)C(=O)N[C@@](C)(Cc1ccc(O)cc1)C(=O)N[C@@H](CC(C)C)C(=O)N[C@H](C(=O)N[C@@H](CCC(=O)O)C(=O)NCC(=O)NCC(=O)N1CCC[C@H]1C(=O)N[C@@H](CO)C(=O)N[C@@H](CO)C(=O)NCC(=O)N[C@@H](C)C(=O)N1CCC[C@H]1C(=O)N1CCC[C@H]1C(=O)N1CCC[C@H]1C(=O)N[C@@H](CO)C(=O)N[C@@H](CCCCNC(=O)COCCOCCNC(=O)COCCOCCNC(=O)CCCCCCCCCCCCC(=O)O)C(N)=O)[C@@H](C)CC)[C@@H](C)CC` [Example 196], the EC50 was 0.712 nM on hGIPR (0.1% bovine casein and 1.0% human serum albumin, 37° C., read-out: hGIPR EC50, nM (SEM, n)); 0.0232 nM on hGIPR (cAMP, incubated at 37° C., 0.1% bovine casein (no human serum albumin), read-out: hGIPR EC50, nM (SEM, n)); more than 9950 nM at hGCGR (0.1% bovine casein and 1.0% human serum albumin, 37° C., geometric mean, read-out: hGCGR EC50, nM (SEM, n)); more than 9950 nM on hGCGR (cAMP, incubated at 37° C., 0.1% bovine casein (no human serum albumin), geometric mean, read-out: hGCGR EC50, nM (SEM, n)); 21.4 nM on hGLP-1R (0.1% bovine casein and 1.0% human serum albumin, 37° C., read-out: hGLP-1R EC50, nM (SEM, n)); 0.356 nM on hGLP-1R (cAMP, incubated at 37° C., 0.1% bovine casein (no human serum albumin), read-out: hGLP-1R EC50, nM (SEM, n)). Moreover, the Emax was 80.8 ± 0.269% on hGIPR (HEK293, 0.1% bovine casein and 1.0% human serum albumin, 37° C., percent of maximal response to GIP(1-42)NH2, read-out: hGIPR Emax, % ± SEM); 96 ± 2.1% at hGIPR (HEK293, percent of maximal response to GIP(1-42)NH2, 37° C., 0.1% bovine casein, arithmetic mean, read-out: hGIPR Emax, % ± SEM); 112 ± 4.62% at hGLP-1R (HEK293, 0.1% bovine casein and 1.0% human serum albumin, 37° C., percent of maximal response to GLP-1(7-36)NH2, read-out: hGLP-1R Emax, % ± SEM); 96.8 ± 2.59% at hGLP-1R (HEK293, percent of maximal response to GLP-1(7-36)NH2, 37° C., 0.1% bovine casein, arithmetic mean, read-out: hGLP-1R Emax, % ± SEM).
Take `CC[C@H](C)[C@H](NC(=O)[C@H](CCCN)NC(=O)[C@H](CC(=O)O)NC(=O)[C@H](CC(C)C)NC(=O)[C@](C)(CC(C)C)NC(=O)[C@@H](NC(=O)C(C)(C)NC(=O)[C@H](Cc1ccc(O)cc1)NC(=O)[C@H](CC(=O)O)NC(=O)[C@H](CO)NC(=O)[C@@H](NC(=O)[C@](C)(Cc1ccccc1F)NC(=O)[C@@H](NC(=O)CNC(=O)[C@H](CCC(=O)O)NC(=O)C(C)(C)NC(=O)[C@@H](N)Cc1ccc(O)cc1)[C@@H](C)O)[C@@H](C)O)[C@@H](C)CC)C(=O)N[C@@H](C)C(=O)N[C@@H](CCC(N)=O)C(=O)NC(C)(C)C(=O)N[C@@H](CCCCNC(=O)COCCOCCNC(=O)COCCOCCNC(=O)CC[C@H](NC(=O)CCCCCCCCCOc1ccc(C(=O)O)cc1)C(=O)O)C(=O)N[C@@H](Cc1ccccc1)C(=O)N[C@H](C(=O)N[C@H](CCC(=O)O)C(=O)N[C@@](C)(Cc1ccc(O)cc1)C(=O)N[C@@H](CC(C)C)C(=O)N[C@H](C(=O)N[C@@H](CCCCNC(=O)COCCOCCNC(=O)COCCOCCNC(=O)CC[C@H](NC(=O)CCCCCCCCCOc1ccc(C(=O)O)cc1)C(=O)O)C(=O)NCC(=O)NCC(=O)N1CCC[C@H]1C(=O)N[C@@H](CO)C(=O)N[C@@H](CO)C(=O)NCC(=O)N[C@@H](C)C(=O)N1CCC[C@H]1C(=O)N1CCC[C@H]1C(=O)N1CCC[C@H]1C(=O)N[C@@H](CO)C(N)=O)[C@@H](C)CC)[C@@H](C)CC` [Example 240] (H-Y[Aib]EGT[αMePhe(2-F)]TSDY[Aib]I[αMeL]LD[Orn]IAQ[Aib]K([AEEA-AEEA-γGlu-Decanoyl(10-(4-HOOC-PhO))])FI[dE][αMeY]LIK([AEEA-AEEA-γGlu-Decanoyl(10-(4-HOOC-PhO))])GGPSSGAPPPS-NH2): the Emax came to 87.2% at hGIPR (HEK293, read-out: hGIPR Emax, % ± SEM, 0.1% bovine casein and 1.0% human serum albumin, 37° C., percent of maximal response to GIP(1-42)NH2); 98.5% at hGLP-1R (HEK293, read-out: hGLP-1R Emax, % ± SEM, percent of maximal response to GLP-1(7-36)NH2, 37° C., 0.1% bovine casein, arithmetic mean). Besides, the EC50 was 0.0237 nM at hGIPR (hGIPR EC50, nM (SEM, n), cAMP, incubated at 37° C., 0.1% bovine casein (no human serum albumin)); more than 9950 nM on hGCGR (hGCGR EC50, nM (SEM, n), 0.1% bovine casein and 1.0% human serum albumin, 37° C., geometric mean); more than 9950 nM at hGCGR (hGCGR EC50, nM (SEM, n), cAMP, incubated at 37° C., 0.1% bovine casein (no human serum albumin), geometric mean); 150 nM at hGLP-1R (hGLP-1R EC50, nM (SEM, n), 0.1% bovine casein and 1.0% human serum albumin, 37° C.); 0.508 nM at hGLP-1R (hGLP-1R EC50, nM (SEM, n), cAMP, incubated at 37° C., 0.1% bovine casein (no human serum albumin)).
With `CC[C@H](C)[C@H](NC(=O)[C@H](CCCN)NC(=O)[C@H](CC(=O)O)NC(=O)[C@H](CC(C)C)NC(=O)[C@](C)(CC(C)C)NC(=O)[C@@H](NC(=O)C(C)(C)NC(=O)[C@@H](NC(=O)[C@H](CC(=O)O)NC(=O)[C@H](CO)NC(=O)[C@@H](NC(=O)[C@](C)(Cc1ccccc1F)NC(=O)[C@@H](NC(=O)CNC(=O)[C@H](CCC(=O)O)NC(=O)C(C)(C)NC(=O)[C@@H](N)Cc1ccc(O)cc1)[C@@H](C)O)[C@@H](C)O)C(C)C)[C@@H](C)CC)C(=O)N[C@@H](C)C(=O)N[C@@H](CCC(N)=O)C(=O)NC(C)(C)C(=O)N[C@@H](CCCCNC(=O)COCCOCCNC(=O)COCCOCCNC(=O)CC[C@H](NC(=O)CCCCCCCCCCCCC(=O)O)C(=O)O)C(=O)N[C@@H](Cc1ccccc1)C(=O)N[C@H](C(=O)N[C@H](CCC(=O)O)C(=O)N[C@@](C)(Cc1ccc(O)cc1)C(=O)N[C@@H](CC(C)C)C(=O)N[C@H](C(=O)N[C@@H](CCCCNC(=O)COCCOCCNC(=O)COCCOCCNC(=O)CC[C@H](NC(=O)CCCCCCCCCCCCC(=O)O)C(=O)O)C(=O)NCC(=O)NCC(=O)N1CCC[C@H]1C(=O)N[C@@H](CO)C(=O)N[C@@H](CO)C(=O)NCC(=O)N[C@@H](C)C(=O)N1CCC[C@H]1C(=O)N1CCC[C@H]1C(=O)N1CCC[C@H]1C(=O)N[C@@H](CO)C(N)=O)[C@@H](C)CC)[C@@H](C)CC` [Example 329], the Emax at hGIPR (HEK293, cAMP, 37° C., 0.1% bovine casein and 1.0% human serum albumin, percent of maximal response to GIP(1-42)NH2, read-out: hGIPR Emax, % ± SEM) was determined as 100%; on hGIPR (HEK293, cAMP, 37° C., 0.1% bovine casein, percent of maximal response to GIP(1-42)NH2, arithmetic mean, read-out: hGIPR Emax, % ± SEM) it was 109%; on hGLP-1R (HEK293, cAMP, 37° C., 0.1% bovine casein and 1.0% human serum albumin, percent of maximal response to GLP-1(7-36)NH2, read-out: hGLP-1R Emax, % ± SEM) it was 88.3%. Besides, the EC50 at hGIPR (cAMP, 37° C., 0.1% bovine casein (no human serum albumin), read-out: hGIPR EC50, nM (SEM, n)) is 0.015 nM; on hGCGR (cAMP, 37° C., 0.1% bovine casein (no human serum albumin), geometric mean, read-out: hGCGR EC50, nM (SEM, n)), more than 9950 nM; at hGCGR (cAMP, 37° C., 0.1% bovine casein and 1.0% human serum albumin, geometric mean (SEM, n), read-out: hGCGR EC50, nM (SEM, n)), more than 9950 nM; on hGLP-1R (cAMP, 37° C., 0.1% bovine casein (no human serum albumin), read-out: hGLP-1R EC50, nM (SEM, n)), 0.353 nM.
